Reference: paper PMC9115112, “A2B adenosine receptor antagonists rescue lymphocyte activity in adenosine-producing patient-derived cancer models” (Journal for Immunotherapy of Cancer, 2022)

Tests used:
Assay type in all cases: cell-based, human
[1] = system: healthy donor T cells (PBMCs) and NK cells; assay: CFSE proliferation assay with exogenous adenosine; details: exogenous adenosine 0.1 mM, antagonist 12 µM; for Rescue of lymphocyte (T and NK cell) proliferation: 3 days (T) and 6 days (NK); for Rescue of NK cell proliferation: 6 days
Method: Freshly isolated PBMCs and NK cells were stained with 5 µM FITC-conjugated carboxyfluorescein succinimidyl ester (CFSE, BioLegend) in phosphate-buffered saline (PBS) (Life Technologies) at room temperature for 5 min. CSFE stained cells were washed with flow cytometer buffer three times. CSFE-labeled healthy PBMCs and NK cells were cultured in 96-well plates with X-VIVO20% and 1% PS for 3 and 6 days, respectively. Healthy PBMCs were incubated with Human T-activator CD3/CD28 beads at 1:4 ratio (Thermo Fisher Scientific) and IL-2 (Novartis) at 100 IU/mL. Healthy donor NK cells were incubated with 1000 IU/mL IL-2 only. 2×10^5 PBMCs and 5×10^4 NK cells were counted for treatment with ADO (Sigma-Aldrich) and 12 μM of A2BAR antagonist at the same day.
Figure 3 Rescue of lymphocyte proliferation by of A2BAR antagonism. Relative proliferation of: (A) CD45RA- CD4 T cells, (B) CD45RA+ CD4 T cells, (C) CD45RA- CD8 T cells, (D) CD45RA+ CD8 T cells, and (E) NK cells, after incubation with exogenous adenosine 0.1 mM and A2BAR antagonist 12 µM for 3 (A–D) and 6 (E) days. (n=10 healthy donors) CD45RA expression differentiates naïve and effector T cells from central and effector memory T cells. Box plots with minimum, first quartile, median, third quartile, and maximum are presented. Unpaired and non-parametric statistical analysis—Mann-Whitney test was performed against untreated control with *p<0.05, **p<0.01, ***p<0.001, and ****p<0.0001. (F–J) Representative CFSE histogram on the corresponding lymphocyte subset. CFSE, carboxyfluorescein succinimidyl ester.

[2] = system: CD4 and CD8 T cells (healthy donor PBMCs); assay: IFNy and perforin cytokine production assay, with CD69 expression (flow cytometry); details: antagonist 12 µM; for IFNy production in CD8 T cells: n=6 healthy donors
Method: Similar experimental setup was performed as the extracellular ADO uptake assay. Cells were harvested after 2 days of CD3/CD28 bead stimulation before treatment with PMA/ionomycin (Sigma Aldrich) and golgi-inhibitors (BD biosciences). After 3 hours of subsequent incubation, intracellular staining was performed for IFNy and perforin (online supplemental table 1).
Figure 4 Rescue of lymphocyte proinflammatory cytokine production IFNy and perforin by A2BAR antagonism. (A,B) Inhibition of extracellular adenosine uptake via phosphorylated-AMP activated protein kinase (pAMPK) staining (n=7 healthy donors). Production of proinflammatory cytokines—(C,D) IFNy and (E) perforin in CD4 (n=5 healthy donors) and CD8 (n=6 healthy donors) T cells. Expression of CD69 adhesion molecule in (F). CD4 (n=7 healthy donors) and (G) CD8 (n=4 healthy donors) T cells. A2BAR antagonist 12 µM was added. Outlier is presented as diamond shape and defined by Tukey’s rule, which is not included in statistical analysis. Box plots with minimum, first quartile, median, third quartile, and maximum are presented. Normalized fold change is based on percent values compared with untreated controls. Unpaired and non-parametric statistical analysis—Mann-Whitney test was performed against untreated control with *p<0.05, **p<0.01, ***p<0.001, and ****p<0.0001.

[3] = system: breast cancer TILs against autologous tumor cells; assay: Chromium (51Cr) release cytotoxicity assay, breast cancer TILs; details: synthetic ADO, 48 hours
Method: Chromium (51Cr) release cytotoxicity assay
Chromium (51Cr) release assay was used to measure the autologous TILs-mediated cytotoxicity against the established patient-derived breast and […] cell lines. Briefly, breast and sarcoma tumor cells were labelled with 51Cr (PerkinElmer) as target cells and seeded on 96-well V-bottom plate (Corning) at 5 000cells/well. Effector TILs were added at the indicated Effector: Target (E:T) ratios. The supernatants were collected carefully into LUMA plates (PerkinElmer) after 24 and 48 hours of co-culture. After drying overnight, radioactivity of the plate was read with MicroBeta2 (PerkinElmer).
Relative adenosine production assay
An ectonucleotidase CD73 assay was optimized to measure the relative ADO production based on competitive AMP blockade and presence of CD73+ cells. Day five patient-derived sarcoma spheroids were digested and split into triplicates in X-VIVO20 and 1% PS culture media with an excessive amount of AMP at 0.4mM (Sigma-Aldrich) incubated for 30 minutes.
After 1500 RPM was applied for three minutes, 25 μL supernatant were removed and mixed with 25 μL of 200 μM ATP (Sigma-Aldrich) in the same media. 25 μL of this mixture was added to a white opaque OptiPlate (PerkinElmer) containing 25 μL Cell-Titer Glo reagent (Promega, US). Relative luminescence unit (RLU) can be read on SPARK 10M plate reader with an integration time of 100ms. […]

Compound: CC1=C(C(=O)OC(C)C)C(c2ccco2)n2c(nc3ccccc32)N1 (stereo not drawn) [ISAM-140, isopropyl 4-(furan-2-yl)−2-methyl-1,4-dihydrobenzo[4 5] imidazo[1,2 a]pyrimidine-3-carboxylate]
- Rescue of lymphocyte (T and NK cell) proliferation [1]: improved immune cell proliferation
- Rescue of proliferation of CD45RA+ (naïve and effector) CD8 T cells ([1]; 3 days, n=10 healthy donors): rescued the proliferation
- Rescue of proliferation of CD45RA+ CD4 T cells ([1]; 3 days, n=10 healthy donors): rescued the proliferation
- Rescue of proliferation of CD45RA- CD4 T cells (central and effector memory) ([1]; 3 days, n=10 healthy donors): rescued the proliferation
- Rescue of NK cell proliferation ([1]; n=10 healthy donors): rescued the proliferation
- IFNy production in CD4 T cells ([2]; exogenous adenosine, n=5 healthy donors): upregulated IFNy production
- IFNy production in CD8 T cells ([2]; exogenous adenosine): upregulated IFNy production

Compound: CC1=C(C(=O)OC(C)C)C(c2ccoc2)n2c(nc3cc(Cl)ccc32)N1 (stereo not drawn) [ISAM-M89A]
- Rescue of killing of breast cancer TILs against autologous tumor cells [3]: rescued killing
- Rescue of lymphocyte (T and NK cell) proliferation [1]: did not restore the proliferation
- CD69 expression in CD8 T cells ([2]; n=4 healthy donors): positive effect
- CD69 expression in CD4 T cells ([2]; n=7 healthy donors): positive effect

Compound: CC1=C(C(=O)OC(C)C)C(c2ccco2)n2c(nc3ccccc32)N1Cc1ccccc1F (stereo not drawn) [ISAM-R56A]
- Rescue of killing of breast cancer TILs against autologous tumor cells [3]: rescued killing
- Rescue of proliferation of T cell subsets ([1]; 3 days, n=10 healthy donors): did not restore the proliferation
- Rescue of NK cell proliferation ([1]; n=10 healthy donors): significantly rescued
- IFNy production by T cells on adenosine suppression (subset not given) ([2]; exogenous adenosine): significantly improved
- Perforin production by CD8 T cells on adenosine suppression ([2]; exogenous adenosine): significantly improved
- IFNy production in CD8 T cells ([2]; exogenous adenosine): significantly rescued
- Perforin production by CD8 T cells on adenosine suppression ([2]; exogenous adenosine, listed as ISAM–R56A): significantly rescued
